Values joined by “and” are separate entries in the source; they are usually repeats but may differ in a detail not shown here. Equal entries are not always repeated. Where two headings read alike, the source gives them in different places.
Key:
[1] = tested on: C. pneumoniae strain K7; assay: C. pneumoniae inclusion count inhibition in infected HL cells (immunofluorescence); assay type: cell-based, Chlamydia pneumoniae; conditions: for inhibition at 5 µM / reduction in inclusion counts / inhibition against C. pneumoniae: added at 2 hpi, 72 h, 5 μM; for inhibition at 5 µM / IC50 / reduction in inclusion counts / inhibition against C. pneumoniae: strain K7, HL cells; for inhibition at 5 µM: read-out: reduction in inclusion counts / inhibition against C. pneumoniae; for IC50: read-out: IC50 (inclusion counts, dose-response); for concentration that inhibits infectivity and interferes with inclusions: human epithelial HL cells
Method: Human epithelial HL cells were grown in a RPMI1640 medium supplemented with 7.5% fetal bovine serum (FBS), 2 mM L-glutamine and 20 μg/ml gentamicin sulfate. A clinical C. pneumoniae isolate Kajaani 7 (K7), originally isolated from a young person suffering from pneumonia was obtained from Professor Pekka Saikku (Department of Medicinal Microbiology, Institute of Diagnostics, University of Oulu, Finland) and a cardiovascular C. pneumoniae isolate CV-6 was obtained from Professor Matthias Maass (Paracelsus Medical University, Salzburg, Austria). The reference strains CWL-029 (VR-1310) and AR-39 (ATCC 53592) were obtained from American Type Culture Collection (ATCC). All strains were propagated in HL cells as previously described. The K7 strain was used in all studies whereas CV-6 and the ATCC reference strains were used to confirm our initial compound screening data.
(§1) For all experiments applying immunofluorescence, HL cells were seeded in 24-well plates with coverslips at density of 4 x 10^5 cells/well and incubated overnight before infection. The cells were inoculated with C. pneumoniae at multiplicity of infection (MOI) 0.2 in the cell growth media supplemented with 1 μg/ml cycloheximide to enhance chlamydial growth. The inoculated cultures were centrifuged at 550 g at 4°C for 1 h and incubated at 37°C for 1 h. Inocula were removed, fresh medium was added into wells and the plates were incubated for 70 h. Afterwards the cultures were fixed with methanol and the coverslips were stained with Pathfinder Chlamydia cell culture confirmation system (Bio-Rad) based on a genus-specific anti-LPS antibody to visualize the host cells and chlamydial inclusions. Detailed protocols for the infection and staining can be found in [29]. Unless otherwise stated in the text, the derivatives were added into the culture medium at 2 hours post infection (hpi), i.e., at the time when inocula were removed. […] DMSO concentration was adjusted to 0.1% in all experiments.
All experiments were carried out as four replicates in minimum and the inclusion counts were determined as mean ± SEM of 4 eye fields per coverslip. For statistical analysis GraphPad Prism software v. 5.0 and Student’s t-test (p < 0.05) were applied.

[2] = tested on: HL cells; assay: Resazurin cell viability assay; assay type: cell-based, human; conditions: 5 μM, 72 h
Method: (§2) HL cells were seeded into 96-well plates at density […] and incubated overnight before starting the exposure. The β^2,2-amino acid derivatives were added at concentrations of 5 μM either in the presence or absence of 1 μg/ml cycloheximide in a final volume of 200 μl and the plates were incubated for 72 h. The resazurin assay was performed as described in Karlsson et al..

[3] = tested on: C. pneumoniae; assay: Delayed administration assay; assay type: cell-based, Chlamydia pneumoniae; conditions: for reduction in inclusion vacuole counts: 3 μM, added at 6 hpi or later; for inhibition at 3 µM: Chlamydia pneumoniae, added at 2 hpi, read-out: inhibition of inclusion vacuole counts
Method: as §1
HL cells were infected as described above and treated with derivatives at concentrations of 3 μM in order to cause inhibition of infection above 50%. The treatment of the infected cells was delayed by 4, 10 and 22 h and inclusions counts were subsequently performed as described above.

[4] = tested on: C. pneumoniae; assay: Infectious progeny assay; assay type: cell-based, Chlamydia pneumoniae; conditions: for inclusion vacuole counts in the second passage of infection vs untreated control: 5 μM; for suppression of infectious progeny production: administered at 6 hpi or later (data not shown)
Method: To measure the effects of the β^2,2-amino acid derivatives on production of new infectious progeny by C. pneumoniae, HL cells were infected with C. pneumoniae as described above in the presence of the derivatives (at a concentration of 5 μM). At 72 hpi, medium was removed from the wells and 200 μl fresh medium was added. The cells were scraped off and then further lysed by vortexing with glass beads, and the lysates were used to infect fresh HL cell monolayers. Inclusion counts in the second passage of infection were determined with immunofluorescent staining as described above, and control wells fixed and stained after the first infectious cycle were used as internal controls.

[5] = tested on: C. pneumoniae EBs; assay: Elementary body infectivity assay; assay type: cell-based; conditions: Chlamydia pneumoniae; EBs treated with 5 μM for 1 h before inoculation of HL cells; read-out: inhibition of EB infectivity
Method: C. pneumoniae EBs were suspended into the HL cell growth medium supplemented with cycloheximide at 400 000 inclusion forming units (IFU)/ml and exposed to 5 μM of the derivatives A1—A6 for 1 h at 4°C. Immediately afterwards, aliquots of the EBs suspensions were used to infect HL cell monolayers as described above (MOI 0.2), resulting in typically 40–60 inclusions per eye field in nontreated control infections.

[6] = tested on: C. pneumoniae inclusions in HL cells; assay type: cell-based, Chlamydia pneumoniae; conditions: 2.5 μM added at 2 hpi
Method: HL cells were seeded in 6-well plates at 2 x 10^6 cells per well and cultured overnight. The cell monolayers were infected with C. pneumoniae (MOI 1) and treated with 2.5 μM of derivative A2 by adding it to the culture medium at 2 hpi based on findings in the dose-response assay. Untreated and uninfected HL control cells were incubated concurrently. The cells were pre-fixed at 24, 48 and 72 hpi with Karnovsky's fixative at 4°C, overnight. The samples were further processed for TEM as described in [30].

[7] = Resazurin cell viability assay; assay type: cell-based, human; conditions: human, HL cells
Method: as §2

SMILES: NCCNC(=O)C(CN)(Cc1ccc(C(F)(F)F)cc1)Cc1ccc(C(F)(F)F)cc1 [A1]
- inhibition at 5 µM ([1]; Chlamydia pneumoniae): 95.6%
- IC50 ([1]; Chlamydia pneumoniae): 2 µM and 1.4 µg/mL
- concentration that inhibits infectivity and interferes with inclusions [1]: below 5 μM
- effect on host HL cell viability (in words) [2]: no substantial effect on host HL cell viability
- reduction in inclusion vacuole counts [3]: 10–20%
- inhibition at 3 µM [3]: ~70%
- inclusion vacuole counts in the second passage of infection vs untreated control [4]: significantly lower
- suppression of infectious progeny production [4]: neither A1 nor A2 suppressed C. pneumoniae infectious progeny production
- inhibition at 5 µM [5]: ≤ 50%

SMILES: NCCNC(=O)C(CN)(Cc1ccc2ccccc2c1)Cc1ccc2ccccc2c1 [A2]
- inhibition at 5 µM ([1]; Chlamydia pneumoniae): 100%
- IC50 ([1]; Chlamydia pneumoniae): 2 µM and 1.3 µg/mL
- concentration that inhibits infectivity and interferes with inclusions [1]: below 5 μM
- effect on host HL cell viability (in words) [2]: no substantial effect on host HL cell viability
- reduction in inclusion vacuole counts [3]: 20–30%
- inhibition at 3 µM [3]: ~80%
- inclusion vacuole counts in the second passage of infection vs untreated control [4]: significantly lower
- suppression of infectious progeny production [4]: neither A1 nor A2 suppressed C. pneumoniae infectious progeny production
- inhibition at 5 µM [5]: ≤ 50%
- TEM finding in infected HL cells ([6]; 24 hpi): affected inclusion vacuoles were visible
- TEM finding in infected HL cells ([6]; 48 hpi): smaller inclusions, which only contained fragments of RBs and EBs
- TEM finding in infected HL cells ([6]; 72 hpi): no RBs or EBs were present

SMILES: CC(C)(C)c1ccc(CC(CN)(Cc2ccc(C(C)(C)C)cc2)C(=O)NCCN)cc1 [A3]
- reduction in inclusion counts / inhibition against C. pneumoniae [1]: full inhibition
- viability at 72 h, 5 µM [7]: 30.6%
- inhibition at 5 µM [5]: 77%

SMILES: CN(C)CCOC(=O)C(CN)(Cc1ccc(C(F)(F)F)cc1)Cc1ccc(C(F)(F)F)cc1 [A4]
- inhibition at 5 µM ([1]; Chlamydia pneumoniae): 23.2%
- effect on host HL cell viability (in words) [2]: no cytotoxic effects
- inhibition at 5 µM [5]: 20%

SMILES: CN(C)CCOC(=O)C(CN)(Cc1ccc2ccccc2c1)Cc1ccc2ccccc2c1 [A5]
- inhibition at 5 µM ([1]; Chlamydia pneumoniae): 89.8%
- reduction of HL cell viability [2]: 35.6%
- inhibition at 5 µM [5]: 66%

SMILES: CN(C)CCOC(=O)C(CN)(Cc1ccc(C(C)(C)C)cc1)Cc1ccc(C(C)(C)C)cc1 [A6]
- reduction in inclusion counts / inhibition against C. pneumoniae [1]: full inhibition
- viability at 72 h, 5 µM [7]: 18.4%
- inhibition at 5 µM [5]: 90%

SMILES: CO[C@H]1/C=C/O[C@@]2(C)Oc3c(C)c(O)c4c(O)c(c(/C=N/N5CCN(C)CC5)c(O)c4c3C2=O)NC(=O)/C(C)=C\C=C\[C@H](C)[C@H](O)[C@@H](C)[C@@H](O)[C@@H](C)[C@H](OC(C)=O)[C@@H]1C [Rifampicin, reference compound]
- inhibition at 0.012 µM ([1]; Chlamydia pneumoniae, K7, positive control, 12 nM, read-out: inhibition in C. pneumoniae inclusion counts): 95 to 98%

SMILES: CC[C@H]1OC(=O)[C@H](C)[C@@H](O[C@H]2C[C@@](C)(OC)[C@@H](O)[C@H](C)O2)[C@H](C)[C@@H](O[C@@H]2O[C@H](C)C[C@H](N(C)C)[C@H]2O)[C@](C)(O)C[C@@H](C)CN(C)[C@H](C)[C@@H](O)[C@]1(C)O [azithromycin, reference compound]
- inhibition at 0.02 µM ([1]; Chlamydia pneumoniae, K7, positive control, 20 nM, read-out: inhibition in C. pneumoniae inclusion counts): 95 to 98%

— article PMC4900588, “Amphipathic β^2,2-Amino Acid Derivatives Suppress Infectivity and Disrupt the Intracellular Replication Cycle of Chlamydia pneumoniae” (PLoS ONE, 2016)
